Entries after “also recorded” stand apart in the source; their conditions may differ.
What was measured:
anesthetized beagle dogs = experiment: Sympathetically-evoked responses in dogs after 4.5 days dosing; format: in vivo; settings: 10 mg/kg/d for 4.5 days
[1] = system: tissue norepinephrine and dopamine levels; experiment: Tissue catecholamines in SHRs after single dose (dose response, time course); format: in vivo, spontaneously hypertensive rats; settings: 6.2 mg/kg oral or i.v., 0.5 to 4 hours
[2] = system: tissue norepinephrine and dopamine levels; experiment: Tissue catecholamines in Sprague-Dawley rats after single oral dose; format: in vivo
Experimental: In SHRs there were significant changes in the dopamine/norepinephrine ratio in the mesenteric artery at doses of 0.3 mg/kg, in the left ventricle at 3.0 mg/kg, and in the cerebral cortex at 10 mg/kg. […] In a second dose-response study in SHRs, three doses were administered 12 hours apart at either 3.0, 10, 30, or 100 mg/kg, and tissue was harvested six hours after the third dose. Nepicastat caused a significant dose dependent decrease in norepinephrine (10 mg/kg) and increase in dopamine (3.0 mg/kg) and the dopamine/norepinephrine ratio (3.0 mg/kg) in the left ventricle and mesenteric artery. The effects of nepicastat on dopamine and norepinephrine concentrations, and the dopamine/norepinephrine ratio in the cerebral cortex were significant only at 30 and 100 mg/kg.

plasma renin activity = experiment: Plasma renin activity in SHRs; format: in vivo, spontaneously hypertensive rats; settings: 30 and 100 mg/kg/d p.o. for 5 days
Excerpt: The potency relationships in the left ventricle and mesenteric artery resulting from these in vivo studies strongly parallel those obtained from in vitro studies using purified DBH (see above). […] It was therefore of interest to assess whether decreasing norepinephrine levels with nepicastat would result in a decrease in plasma renin activity.

SHRs = experiment: 30-day radio-telemetry study in SHRs; settings: for blood pressure: hydrochloride
[3] = Plasma and tissue compound levels in dogs; format: in vivo, beagle dogs
Experimental: Male Beagle dogs (Marshall farms, North Rose, N.Y.) weighing between 9-16 kg were used in the study. The animals were allowed water ad libitum and given food once daily at ˜10.00 AM. Animals were randomly assigned to one of the following treatment groups (n=8/group): placebo (empty capsule), or nepicastat at 2 mg/kg b.i.d (4 mg/kg/day). Each animal received 2 doses daily, morning and afternoon (8-10 hours apart). Daily blood samples (10 ml) were drawn 6 h after the AM dose for measurement of plasma levels of nepicastat and catecholamines. The blood was collected in tubes containing heparin and glutathione and centrifuged at −4° C. within 1 h of collection. The plasma was separated and divided into two samples, one for the measurement of plasma catecholamines and the other for analysis of nepicastat.
Plasma norepinephrine (NE), dopamine (DA) and epinephrine (EPI) were analyzed by HPLC using electrochemical detection. Plasma concentration of nepicastat was determined by HPLC using electrochemical detection.
Thirty-two male beagle dogs, weighing 10-12 kg, were randomly assigned to one of the following 4 treatment groups (n=8 per group): nepicastat at 0 mg/kg/day (placebo), 10 mg/kg/day (5 mg/kg b.i.d.), 30 mg/kg (15 mg/kg b.i.d.), or 60 mg/kg/day (30 mg/kg b.i.d.). Dog numbers 1-16 were assigned as dose group A and dog numbers 17-32 as dose group B. The terminal surgery for tissue harvest was performed over 2 days with 16 animals studied per day. Two or 3 days before the first compound administration each dog was weighed and skin regions overlying both cephalic, saphenous and jugular veins were shaved. Dosing consisted of oral administration of one capsule with the second given 8-10 hr later. Dogs were dosed as scheduled on days 1-3. On day 4, prior to the AM dose, 3 ml of blood were obtained from a jugular vein for determination of baseline plasma compound levels. The dog was then administered the AM dose, and at 1, 2, 4 and 8 hr following the dose additional 3 ml blood samples were collected for determination of plasma compound levels. […]

Cl.NCc1c[nH]c(=S)n1[C@H]1CCc2c(F)cc(F)cc2C1 [nepicastat, (S)-5-Aminomethyl-1-(5,7-difluoro-1,2,3,4-tetrahydronaphth-2-yl)-2,3-dihydro-2-thioxo-1H-imidazole hydrochloride]
blood pressure and heart rate increases in response to carotid artery occlusion (anesthetized beagle dogs): no statistically significant decrease
blood pressure response to i.v. tyramine challenge (anesthetized beagle dogs): only slight and non-significant inhibition
heart rate response to i.v. tyramine challenge (anesthetized beagle dogs): significantly reduced the increase in heart rate
mesenteric artery catecholamines [1]: significantly decreased norepinephrine and increased dopamine and the dopamine/norepinephrine ratio
dose with significant increase in dopamine/norepinephrine ratio ([2]; cerebral cortex, only at this dose): 100 mg/kg
dose with significant increase in dopamine/norepinephrine ratio ([2]; left ventricle, 6 h after single oral dose): 1.0 mg/kg
dose with significant increase in dopamine/norepinephrine ratio ([2]; mesenteric artery, 6 h after single oral dose): 3.0 mg/kg
plasma renin activity (plasma renin activity): did not alter plasma renin activity
peak decrease in mean blood pressure (SHRs; 30 mg/kg/d, day 3): −20 mmHg
peak antihypertensive response on day 1 (SHRs; 100 mg/kg, 21 hr after dosing): −29 mmHg
blood pressure (SHRs; 3 and 10 mg/kg/d for 30 days): no significant effects; also recorded: did not significantly affect blood pressure
persistence of blood pressure effect after a single dose (SHRs; 30 and 100 mg/kg/d): 24 h
blood pressure (SHRs; 30 and 100 mg/kg/d for 30 days): significantly lowered blood pressure; also recorded: significantly reduced blood pressure
antihypertensive effect of mono-administration (SHRs; enalapril 1 mg/kg or nepicastat 30 mg/kg (Series III)): only a small antihypertensive effect
relation of deaths to treatment (SHRs; four deaths in four series): appeared unrelated to the treatment of nepicastat
cardiac hypertrophy / left ventricular mass (SHRs; nepicastat 3-100 mg/kg): did not affect the cardiac hypertrophy
time of peak plasma levels of the drug ([3]; 2 mg/kg bid, sampled 6 h after AM dose): 2 days post-dose
dose proportionality of nepicastat concentration in plasma and tissue ([3]; 10, 30, 60 mg/kg/day, Day 4 and Day 5): dose-proportional
levels of nepicastat in tissues vs plasma ([3]; Day 5, all tissues examined): higher than those in plasma

From patent US10561638B2, “Methods for treating dependence” (Biotie Therapies, Inc., priority 2007, dated 2020)
